Legend:
[1] = system: ovariectomy-induced bone loss; details: through inhibiting osteoclastogenesis; cited from earlier work
[2] = system: IL-1β precursor expression in J774A.1 cells; assay: IL-1β precursor expression, Western blot in LPS-activated macrophages; type: cell-based, mouse; details: J774A.1 cells incubated with creosol 30 minutes, then LPS 6 hours; FIG. 2E
Method: (§1) Whole cell lysates were separated by SDS-PAGE and electrotransferred to a PVDF (polyvinylidene fluoride) membrane. The membranes were incubated in a blocking solution—5% nonfat milk in phosphate buffered saline with 0.1% Tween 20—at room temperature for 1 hour. Each membrane was incubated with a specific primary antibody, at room temperature, for 2 hours. After washing the membrane three times in PBS with 0.1% Tween 20, it was incubated with an HRP-conjugated secondary antibody directed against the primary antibody. The membrane was developed by an enhanced chemiluminescence Western blot detection system.
(§2) J774A.1 cells (1×10^6/ml) were primed with LPS for 5.5 hours, followed by treatment with creosol for 30 minutes, and then stimulated with ATP (5 mM) for an additional 30 minutes. […] Data is expressed as the mean±SE from three separate experiments (wherein *p<0.05). In FIG. 2B, the expression of caspase-1 (p45) and cleaved caspase-1 (p10) were analyzed by Western blot. […] Data is expressed as the mean±SE from three separate experiments (wherein *p<0.05). The expressions of caspase-1 (p45) and cleaved caspase-1 (p10) were analyzed by Western blot, and the result of one of the three separate experiments is shown in FIG. 2D. […] The expressions of NLRP3 inflammasomes and IL-1β precursor were analyzed by Western blot. […]

[3] = system: caspase-1 activation in J774A.1 cells; assay: Caspase-1 activation, Western blot of p10 subunit in ATP stimulated LPS-primed macrophages; type: cell-based, mouse; details: then ATP 30 minutes
Method: as §1, §2

[4] = system: NLRP3 expression in J774A.1 cells; assay: NLRP3 expression, Western blot in LPS-activated macrophages; type: cell-based, mouse; details: J774A.1 cells incubated with creosol 30 minutes, then LPS 6 hours; FIG. 2E
Method: as §1, §2

[5] = system: cultured rat hippocampal neurons; details: cultured rat hippocampal neurons exposed to N-methyl-D-aspartate or H2O2; cited from earlier work
[6] = system: IL-6 expression in RAW 264.7 macrophages; assay: IL-6 ELISA in LPS-activated macrophages; type: cell-based, murine; details: RAW 264.7 macrophages pretreated with creosol 30 minutes, then LPS 1 μg/ml 24 hours; FIG. 1B
Method: (§3) Cells were seeded in 6-well plates at a density of 5×10^5 cells/ml, and then incubated with or without LPS (1 μug/ml) in the absence or presence of tested samples for 24 hours. The effects of the tested samples on TNF-α, IL-6 and IL-1β production were measured by ELISA according to the manufacturer's protocol. Briefly, 50 μl of biotinylated antibody reagent and 50 μl of supernatant were added to an anti-mouse TNF-α, IL-6 and IL-1β precoated stripwell plate, and incubated at room temperature for 2 hours. After washing the plate three times with the washing buffer, 100 μl of diluted streptavidin-HRP (horseradish peroxidase) concentrate was added to each well and the plate was incubated at room temperature for 30 minutes. The washing process was repeated; then, 100 μl of a premixed tetramethylbenzidine substrate solution was added to each well and developed at room temperature, in the dark, for 30 minutes. Following the addition of 100 μl of stop solution to each well to stop the reaction, the absorbance of the plate was measured by a microplate reader at a 450 nm wavelength. As shown in FIG. 1B and FIG. 1C, RAW 264.7 macrophages (5×10^5/ml) were pretreated with creosol for 30 minutes, followed by stimulating with LPS (1 μg/ml) for 24 hours. IL-6 and TNF-α concentration in culture medium was assayed by ELISA.

[7] = system: NO production in RAW 264.7 macrophages; assay: NO inhibitory assay (Griess reaction) in LPS-activated macrophages; type: cell-based, murine; details: RAW 264.7 macrophages pretreated with creosol 30 minutes, then LPS 1 μg/ml 24 hours; FIG. 1A
Method: RAW 264.7 cells were seeded in 24-well plates at a density of 5×10^5 cells/ml, and then incubated with or without LPS (1 μg/ml) in the absence or presence of tested samples for 24 hours. The effects of creosol on NO production were measured indirectly by the analysis of nitrite levels, using the Griess reaction. The effects of creosol on the expression of inflammatory mediators were analyzed. In the present invention, RAW 264.7 macrophages (5×10^5/ml) were pretreated with creosol for 30 minutes, followed by stimulation with LPS (1 μg/ml) for 24 hours. NO concentration in culture medium was assayed by the Griess reaction.

[8] = system: IL-1β secretion in J774A.1 cells; assay: IL-1β secretion ELISA in ATP stimulated LPS-primed macrophages (NLRP3 inflammasome activation); type: cell-based, mouse
Method: Cells were seeded in 6-well plates at a density of 5×10^5 cells/ml, and then incubated with or without LPS (1 μug/ml) in the absence or presence of tested samples for 24 hours. The effects of the tested samples on TNF-α, IL-6 and IL-1β production were measured by ELISA according to the manufacturer's protocol. Briefly, 50 μl of biotinylated antibody reagent and 50 μl of supernatant were added to an anti-mouse TNF-α, IL-6 and IL-1β precoated stripwell plate, and incubated at room temperature for 2 hours. […] Following the addition of 100 μl of stop solution to each well to stop the reaction, the absorbance of the plate was measured by a microplate reader at a 450 nm wavelength.
as §2

[9] = system: TNF-α expression in RAW 264.7 macrophages; assay: TNF-α ELISA in LPS-activated macrophages; type: cell-based, murine; details: RAW 264.7 macrophages pretreated with creosol 30 minutes, then LPS 1 μg/ml 24 hours; FIG. 1C
Method: as §3

Question: Which “prevention of ovariectomy-induced bone loss” value [1] does the source give for `COc1cc(C)ccc1O` [creosol, 2-methoxy-4-methylphenol] here?
Answer: able to prevent ovariectomy-induced bone loss

Question: And the IL-1β precursor expression [2]?
Answer: significantly inhibited the IL-1[…] precursor expression

Question: And the caspase-1 activation ([3]; J774A.1 cells incubated with creosol 30 minutes before LPS-priming, washed out, FIG. 2D)?
Answer: inhibited by creosol in a dose-dependent fashion

Question: What about the caspase-1 activation ([3]; LPS-primed J774A.1 cells incubated with creosol 30 minutes, FIG. 2B) of the same molecule?
Answer: inhibited caspase-1 activation slightly

Question: And the NLRP3 expression [4]?
Answer: inhibited NLRP3 expression slightly

Question: What about the “prevention of cell death of neurons” value [5] of the same molecule?
Answer: able to prevent the cell death

Question: What about the IL-6 expression [6] of the same molecule?
Answer: able to inhibit IL-6 expression in a dose-dependent manner

Question: And the “expression of NO” value [7]?
Answer: inhibited in creosol-pretreated cells in a dose-dependent manner

Question: What about the IL-1β secretion ([8]; J774A.1 cells incubated with creosol 30 minutes before LPS-priming, washed out, then ATP 30 minutes, FIG. 2C) of the same molecule?
Answer: inhibited IL-1β secretion in a dose-dependent fashion

Question: What about the IL-1β secretion ([8]; LPS-primed J774A.1 cells incubated with creosol 30 minutes, then ATP 5 mM 30 minutes, FIG. 2A) of the same molecule?
Answer: inhibited IL-1β secretion slightly

Question: What about the TNF-α expression [9] of the same molecule?
Answer: not able to inhibit TNF-α expression

Source: patent publication US20150005390A1, “METHOD FOR TREATING INFLAMMATORY DISORDER” (National Defense Medical Center, priority 2013, published 2015)
